{"source": "ChEMBL document CHEMBL1151399", "about": "“Identification of terpenoids from the leaves of Piptocarpha paradoxa and their biological activities” (J Nat Prod, 1982)", "assay_type_in_all_cases": "functional, organism-based", "key": {"[1]": {"tested_on": "Escherichia coli", "assay": "Antimicrobial activity against Escherichia coli Migula 1895 by Kirby and Baur method"}, "[2]": {"tested_on": "Klebsiella aerogenes", "assay": "Antimicrobial activity against Enterobacter aerogenes Kruse 1896 by Kirby and Baur method"}, "[3]": {"tested_on": "Staphylococcus aureus", "assay": "Antimicrobial activity against Staphylococcus aureus Rosenbach 1884 by Kirby and Baur method"}, "[4]": {"tested_on": "Streptococcus sp.", "assay": "Antimicrobial activity against Streptococcus sp. Rosenbach 1884 by Kirby and Baur method"}, "[5]": {"tested_on": "Kocuria rosea", "assay": "Antimicrobial activity against Micrococcus roseus Flugge 1886 by Kirby and Baur method"}, "[6]": {"tested_on": "Candida", "assay": "Antimicrobial activity against Candida sp. Berkhout by Kirby and Baur method"}, "[7]": {"tested_on": "Providencia rettgeri", "assay": "Antimicrobial activity against Proteus rettgeri Hadley 1918 by Kirby and Baur method"}, "[8]": {"tested_on": "Salmonella typhi", "assay": "Antimicrobial activity against Salmonella typhi Zopf 1884 by Kirby and Baur method", "conditions": "Salmonella enterica subsp. enterica serovar Typhi"}}, "note": "Active and inactive are the calls of the source. The rule behind the calls is not given here."}
{"smiles": "C=C1CCC2CC1C(C)(C)CC(O)/C=C\\2C", "note": "(stereo not drawn)", "values": [{"measurement": "Activity", "setting": "[1]", "result": "inactive"}, {"measurement": "Activity", "setting": "[2]", "result": "inactive"}, {"measurement": "Activity", "setting": "[3]", "result": "Active"}, {"measurement": "Activity", "setting": "[4]", "result": "inactive"}, {"measurement": "Activity", "setting": "[5]", "result": "inactive"}, {"measurement": "Activity", "setting": "[6]", "result": "inactive"}, {"measurement": "Activity", "setting": "[7]", "result": "inactive"}, {"measurement": "Activity", "setting": "[8]", "result": "inactive"}]}
